# Legend:
# [1] = system: CREBH and ATF6 heterodimers; assay: IP-Western blot of CREBH and ATF6 interaction in 293T cells; type: cell-based, human; settings: 293T cells expressing flag-tagged CREBH; 8 hours after Tm treatment
# Method: FIG. 11 depicts the synergistic interaction of CREBH with ATF6 to activate transcription of the major APR genes. (A) Luciferase reporter analysis of trans-activation effects of CREBH on promoters of the murine SAP gene and the human CRP gene in H2.35 cells. H2.35 cells in a 35 mm collagen-coated plate were co-transfected with a control vector or a CREBH expression vector (0.25 μg), the luciferase reporter (0.6 μg) and pcDNA3-LacZ (0.25 μg), and were then cultured in the absence or presence of Tm (5 μg/ml) for 10 hours. (B) CREBH-DN efficiently suppresses CREBH trans-activation on the murine SAP and the human CRP promoters. […] (C) Interaction between ATF6 and CREBH was determined by IP-Western blot analysis. […] Expression levels of CREBH in the transfected cells were determined by Western blot analysis of total cell lysates using the anti-flag antibody (lower panel). […]
# For analysis of expression and cleavage of CREBH protein, total cell lysates were prepared from H2.35 cells or COS7 cells using Nonidet P-40 lysis buffer (1% NP-40, 50 mM Tris-HCl at pH 7.5, 150 mM NaCl, 0.05% SDS) supplemented with protease inhibitors (Complete Mini from Roche Applied Science), 0.1 mM sodium vanadate, and 1 mM sodium fluoride. […] The total cell lysate, membrane and nuclear fractions were subjected to SDS-PAGE and then analyzed by Western blot using anti-flag monoclonal antibody or other antibodies. […]
# CREBH = assay: Confocal immunofluorescence of CREBH translocation in COS7 cells; type: cell-based; settings: Tm 5 μg/ml 4 hours
# Method: FIG. 3 depicts the effects of ER stress on CREBH: proteolytic cleavage of CREBH to release its N-terminal fragment that translocates into the nucleus. (A) Illustration of transmembrane domains and lumenal domains of SREBP, ATF6, Luman and CREBH in human (hs), mouse (mm). The conserved residues for S1P and S2P recognition are highlighted. (B) Cleavage of CREBH in H2.35 cells under different stimuli. H2.35 cells stably expressing flag-tagged human CREBH were treated with 0.5 μg/ml BFA, 20 ng/ml TNFα, 40 ng/ml IL6, 5 mM DTT, 0.5 μM Tg or 5 μg/ml Tm for 8 hours. Untransfected H2.35 cells (lane 1) and the H2.35 cells that stably express human CREBH (lane 2) were cultured under normal conditions as control. Total cell lysates were collected for Western blot analysis by using an anti-flag monoclonal antibody (upper panel). Levels of α-actin were determined for control of protein loading (lower panel). (C) Cleavage of CREBH in H2.35 cells under Tm treatment for various time periods. The H2.35 cells stably expressing flag-tagged CREBH were cultured in the absence or presence of Tm (5 μg/ml) for 4, 8 or 12 hours. […]
# Immunofluorescence staining was performed as previously described (Paterson et al., 1995). […] The fluorescence images were examined by a confocal laser scanning fluorescence microscopy using an LSM510 (Carl Zeiss, Thornwood, N.Y.).
# CRP and SAP mRNA = CRP and SAP mRNA in mouse primary hepatocytes (Northern blot); type: cell-based; settings: Tm 5 μg/ml 2, 4, 6, 8 hours
# Method: Primary hepatocytes were isolated from fetal livers of C57BL/6J mice at embryonic stage E18, and were then treated with Tm (5 μg/ml) for 2, 4, 6, and 8 hours. Total RNA was isolated and subjected to Northern blot analysis to determine levels of CRP, SAP and BiP mRNAs (upper panel). Levels of spliced XBP1 mRNA were determined by quantitative real-time RT-PCR (lower panel). For panels A-B, experiments were performed at least 3 times and representative data are shown. […] Quantitative real-time RT-PCR was used to determine the mRNA levels.
# Primary hepatocytes were isolated from fetal livers of C57BL/6J mice at embryonic stage E18 as previously described (Mackey and Darlington, 2004).
substance,measurement,setting,value
tunicamycin [Tm],interaction between CREBH and ATF6,[1],significantly increased
same,nuclear accumulation of immunoreactive CREBH protein,CREBH,a significant portion of the immunoreactive CREBH protein accumulated in the nucleus
same,expression of the CRP and SAP mRNA,CRP and SAP mRNA,increased expression of the CRP and SAP mRNA in a time-dependent manner

# — patent US20070111258A1, “Compositions and methods for modulating the acute phase response” (priority 2005, published 2007)
